From ChEMBL document CHEMBL3112479, “Synthesis and evaluation of the antimicrobial activities of 3-((5-phenyl-1,3,4-oxadiazol-2-yl)methyl)-2-thioxothiazolidin-4-one derivatives” (2014)
Values after ≈ are worked out from the molar mass of the structure shown.

Tests used:
[1] = test system: Staphylococcus aureus; experiment: Antimicrobial activity against methicillin-resistant Staphylococcus aureus clinical isolate 3506 after 20 hrs by two-fold serial dilution technique; type: functional; details: isolate 3506, 20 h
[2] = test system: Staphylococcus aureus; experiment: Antimicrobial activity against Staphylococcus aureus RN4220 after 20 hrs by two-fold serial dilution technique; type: functional; details: RN4220, 20 h
[3] = test system: Escherichia coli; experiment: Antimicrobial activity against Escherichia coli CCARM 1356 after 20 hrs by two-fold serial dilution technique; type: functional; details: CCARM 1356, 20 h
[4] = test system: Escherichia coli; experiment: Antimicrobial activity against Escherichia coli KCTC 1924 after 20 hrs by two-fold serial dilution technique; type: functional; details: KCTC 1924, 20 h
[5] = test system: Pseudomonas aeruginosa; experiment: Antimicrobial activity against Pseudomonas aeruginosa 2004 after 20 hrs by two-fold serial dilution technique; type: functional; details: Pseudomonas aeruginosa, 2004, 20 h
[6] = test system: Streptococcus mutans; experiment: Antimicrobial activity against Streptococcus mutans 3065 after 20 hrs by two-fold serial dilution technique; type: functional; details: Streptococcus mutans, 3065, 20 h
[7] = test system: Salmonella typhimurium; experiment: Antimicrobial activity against Salmonella typhimurium 2421 after 20 hrs by two-fold serial dilution technique; type: functional, Salmonella enterica subsp. enterica serovar Typhimurium; details: Salmonella enterica, 2421, 20 h
[8] = test system: Staphylococcus aureus; experiment: Antimicrobial activity against quinolone-resistant Staphylococcus aureus clinical isolate 3519 after 20 hrs by two-fold serial dilution technique; type: functional; details: isolate 3519, 20 h
[9] = test system: Salmonella typhimurium; experiment: Antimicrobial activity against Salmonella typhimurium 1926 after 20 hrs by two-fold serial dilution technique; type: functional, Salmonella enterica subsp. enterica serovar Typhimurium; details: Salmonella enterica, 1926, 20 h
[10] = test system: Staphylococcus aureus; experiment: Antimicrobial activity against Staphylococcus aureus 503 after 20 hrs by two-fold serial dilution technique; type: functional; details: Staphylococcus aureus, 503, 20 h
[11] = test system: Staphylococcus aureus; experiment: Antimicrobial activity against quinolone-resistant Staphylococcus aureus clinical isolate 3505 after 20 hrs by two-fold serial dilution technique; type: functional; details: isolate 3505, 20 h
[12] = test system: Staphylococcus aureus; experiment: Antimicrobial activity against methicillin-resistant Staphylococcus aureus clinical isolate 3167 after 20 hrs by two-fold serial dilution technique; type: functional; details: isolate 3167, 20 h
[13] = test system: Candida albicans; experiment: Antimicrobial activity against Candida albicans 7535 after 20 hrs by two-fold serial dilution technique; type: functional; details: Candida albicans, 7535, 20 h
[14] = test system: Pseudomonas aeruginosa; experiment: Antimicrobial activity against Pseudomonas aeruginosa 2742 after 20 hrs by two-fold serial dilution technique; type: functional; details: Pseudomonas aeruginosa, 2742, 20 h
[15] = test system: Staphylococcus aureus; experiment: Antimicrobial activity against Staphylococcus aureus 209 after 20 hrs by two-fold serial dilution technique; type: functional; details: Staphylococcus aureus, 209, 20 h

O=C1CSC(=S)N1Cc1nnc(-c2cccc(Br)c2)o1 was tested, and the MIC [1] was 32 µg/mL (≈ 86.4 µM), the MIC [2] was 32 µg/mL (≈ 86.4 µM) and the MIC [3] was > 128 µg/mL. For the same molecule, the MIC [4] was 16 µg/mL (≈ 43.2 µM), the MIC [5] was > 128 µg/mL and the MIC [6] was 16 µg/mL (≈ 43.2 µM). The MIC [7] was 128 µg/mL (≈ 346 µM), the MIC [8] was 32 µg/mL (≈ 86.4 µM) and the MIC [9] was 32 µg/mL (≈ 86.4 µM). The MIC [10] was 32 µg/mL (≈ 86.4 µM), the MIC [11] was 32 µg/mL (≈ 86.4 µM) and the MIC [12] was 16 µg/mL (≈ 43.2 µM). For the same molecule, the MIC [13] was 32 µg/mL (≈ 86.4 µM), the MIC [14] was > 128 µg/mL and the MIC [15] was 16 µg/mL (≈ 43.2 µM).

For O=C(O)c1ccc(/C=C2\SC(=S)N([C@@H](Cc3ccccc3)c3nnc(-c4cccc(Br)c4)o3)C2=O)cc1, the MIC [1] was 1 µg/mL (≈ 1.69 µM), the MIC [2] was 2 µg/mL (≈ 3.38 µM) and the MIC [3] was > 128 µg/mL. The MIC [4] was > 128 µg/mL, the MIC [5] was > 128 µg/mL and the MIC [6] was 1 µg/mL (≈ 1.69 µM). The MIC [7] was > 128 µg/mL, the MIC [8] was 2 µg/mL (≈ 3.38 µM) and the MIC [9] was > 128 µg/mL. For the same molecule, the MIC [10] was > 64 µg/mL, the MIC [11] was 2 µg/mL (≈ 3.38 µM) and the MIC [12] was 1 µg/mL (≈ 1.69 µM). The MIC [13] was > 64 µg/mL, the MIC [14] was > 128 µg/mL and the MIC [15] was > 64 µg/mL.

O=C1CSC(=S)N1Cc1nnc(-c2ccccc2)o1 was tested, and the MIC [1] was 64 µg/mL (≈ 220 µM), the MIC [2] was 64 µg/mL (≈ 220 µM) and the MIC [3] was > 128 µg/mL. For the same molecule, the MIC [4] was 64 µg/mL (≈ 220 µM), the MIC [5] was > 128 µg/mL and the MIC [6] was 64 µg/mL (≈ 220 µM). It also gave an MIC [7] of 128 µg/mL (≈ 439 µM), an MIC [8] of 64 µg/mL (≈ 220 µM) and an MIC [9] of 64 µg/mL (≈ 220 µM). It also gave an MIC [10] of 64 µg/mL (≈ 220 µM), an MIC [11] of 64 µg/mL (≈ 220 µM) and an MIC [12] of 64 µg/mL (≈ 220 µM). The MIC [13] was 64 µg/mL (≈ 220 µM), the MIC [14] was > 128 µg/mL and the MIC [15] was 32 µg/mL (≈ 110 µM).

For O=C1CSC(=S)N1Cc1nnc(-c2cccc(Cl)c2)o1, the MIC [1] was 32 µg/mL (≈ 98.2 µM), the MIC [2] was 16 µg/mL (≈ 49.1 µM) and the MIC [3] was > 128 µg/mL. The MIC [4] was 16 µg/mL (≈ 49.1 µM), the MIC [5] was > 128 µg/mL and the MIC [6] was 16 µg/mL (≈ 49.1 µM). It also gave an MIC [7] of 64 µg/mL (≈ 196 µM), an MIC [8] of 32 µg/mL (≈ 98.2 µM) and an MIC [9] of 32 µg/mL (≈ 98.2 µM). It also gave an MIC [10] of 32 µg/mL (≈ 98.2 µM), an MIC [11] of 32 µg/mL (≈ 98.2 µM) and an MIC [12] of 32 µg/mL (≈ 98.2 µM). The MIC [13] was 32 µg/mL (≈ 98.2 µM), the MIC [14] was > 128 µg/mL and the MIC [15] was 16 µg/mL (≈ 49.1 µM).

COc1c(N2CCNC(C)C2)c(F)cc2c(=O)c(C(=O)O)cn(C3CC3)c12 (centres undefined) [GATIFLOXACIN] gave an MIC [1] of 2 µg/mL (≈ 5.33 µM), an MIC [2] of 0.25 µg/mL (≈ 0.666 µM) and an MIC [3] of 16 µg/mL (≈ 42.6 µM). For the same molecule, the MIC [4] was 2 µg/mL (≈ 5.33 µM), the MIC [5] was 1 µg/mL (≈ 2.66 µM) and the MIC [6] was 0.5 µg/mL (≈ 1.33 µM). For the same molecule, the MIC [7] was 0.5 µg/mL (≈ 1.33 µM), the MIC [8] was 4 µg/mL (≈ 10.7 µM) and the MIC [9] was 2 µg/mL (≈ 5.33 µM). For the same molecule, the MIC [10] was 4 µg/mL (≈ 10.7 µM), the MIC [11] was 8 µg/mL (≈ 21.3 µM) and the MIC [12] was 2 µg/mL (≈ 5.33 µM). It also gave an MIC [13] of 0.5 µg/mL (≈ 1.33 µM), an MIC [14] of 1 µg/mL (≈ 2.66 µM) and an MIC [15] of 2 µg/mL (≈ 5.33 µM).

For Cc1onc(-c2ccccc2)c1C(=O)N[C@@H]1C(=O)N2[C@@H]1SC(C)(C)[C@@H]2C(=O)O [OXACILLIN], the MIC [1] was > 64 µg/mL, the MIC [8] was 1 µg/mL (≈ 2.49 µM) and the MIC [11] was 1 µg/mL (≈ 2.49 µM). The MIC [12] was > 64 µg/mL.

For Cc1ccc(-c2nnc(CN3C(=O)CSC3=S)o2)cc1, the MIC [1] was 64 µg/mL (≈ 210 µM), the MIC [2] was 64 µg/mL (≈ 210 µM) and the MIC [3] was > 128 µg/mL. The MIC [4] was 64 µg/mL (≈ 210 µM), the MIC [5] was > 128 µg/mL and the MIC [6] was 64 µg/mL (≈ 210 µM). It also gave an MIC [7] of 128 µg/mL (≈ 419 µM), an MIC [8] of 64 µg/mL (≈ 210 µM) and an MIC [9] of 64 µg/mL (≈ 210 µM). It also gave an MIC [10] of 64 µg/mL (≈ 210 µM), an MIC [11] of 64 µg/mL (≈ 210 µM) and an MIC [12] of 64 µg/mL (≈ 210 µM). The MIC [13] was 64 µg/mL (≈ 210 µM), the MIC [14] was > 128 µg/mL and the MIC [15] was 64 µg/mL (≈ 210 µM).

With O=C1CSC(=S)N1Cc1nnc(-c2ccccc2Br)o1 the MIC [1] was 32 µg/mL (≈ 86.4 µM), the MIC [2] was 32 µg/mL (≈ 86.4 µM) and the MIC [3] was > 128 µg/mL. For the same molecule, the MIC [4] was 16 µg/mL (≈ 43.2 µM), the MIC [5] was > 128 µg/mL and the MIC [6] was 16 µg/mL (≈ 43.2 µM). It also gave an MIC [7] of 128 µg/mL (≈ 346 µM), an MIC [8] of 32 µg/mL (≈ 86.4 µM) and an MIC [9] of 64 µg/mL (≈ 173 µM). For the same molecule, the MIC [10] was 64 µg/mL (≈ 173 µM), the MIC [11] was 32 µg/mL (≈ 86.4 µM) and the MIC [12] was 16 µg/mL (≈ 43.2 µM). For the same molecule, the MIC [13] was 64 µg/mL (≈ 173 µM), the MIC [14] was > 128 µg/mL and the MIC [15] was 16 µg/mL (≈ 43.2 µM).

With O=C1CSC(=S)N1[C@@H](Cc1ccccc1)c1nnc(-c2cccc(Br)c2)o1 the MIC [1] was 4 µg/mL (≈ 8.69 µM), the MIC [2] was 4 µg/mL (≈ 8.69 µM) and the MIC [3] was > 128 µg/mL. The MIC [4] was > 128 µg/mL, the MIC [5] was > 128 µg/mL and the MIC [6] was 2 µg/mL (≈ 4.34 µM). For the same molecule, the MIC [7] was > 128 µg/mL, the MIC [8] was 4 µg/mL (≈ 8.69 µM) and the MIC [9] was > 128 µg/mL. The MIC [10] was > 64 µg/mL, the MIC [11] was 2 µg/mL (≈ 4.34 µM) and the MIC [12] was 2 µg/mL (≈ 4.34 µM). The MIC [13] was > 64 µg/mL, the MIC [14] was > 128 µg/mL and the MIC [15] was > 64 µg/mL.

O=C1CSC(=S)N1Cc1nnc(-c2ccc(Cl)cc2)o1 was tested, and the MIC [1] was 32 µg/mL (≈ 98.2 µM), the MIC [2] was 32 µg/mL (≈ 98.2 µM) and the MIC [3] was > 128 µg/mL. The MIC [4] was 16 µg/mL (≈ 49.1 µM), the MIC [5] was > 128 µg/mL and the MIC [6] was 16 µg/mL (≈ 49.1 µM). For the same molecule, the MIC [7] was 128 µg/mL (≈ 393 µM), the MIC [8] was 64 µg/mL (≈ 196 µM) and the MIC [9] was 32 µg/mL (≈ 98.2 µM). For the same molecule, the MIC [10] was 64 µg/mL (≈ 196 µM), the MIC [11] was 64 µg/mL (≈ 196 µM) and the MIC [12] was 32 µg/mL (≈ 98.2 µM). For the same molecule, the MIC [13] was 32 µg/mL (≈ 98.2 µM), the MIC [14] was > 128 µg/mL and the MIC [15] was 32 µg/mL (≈ 98.2 µM).

O=C1CSC(=S)N1[C@@H](Cc1ccccc1)c1nnc(-c2ccccc2)o1 was tested, and the MIC [1] was 16 µg/mL (≈ 41.9 µM), the MIC [2] was 16 µg/mL (≈ 41.9 µM) and the MIC [3] was > 128 µg/mL. For the same molecule, the MIC [4] was > 128 µg/mL, the MIC [5] was > 128 µg/mL and the MIC [6] was 8 µg/mL (≈ 21 µM). For the same molecule, the MIC [7] was > 128 µg/mL, the MIC [8] was 16 µg/mL (≈ 41.9 µM) and the MIC [9] was > 128 µg/mL. The MIC [10] was > 64 µg/mL, the MIC [11] was 16 µg/mL (≈ 41.9 µM) and the MIC [12] was 16 µg/mL (≈ 41.9 µM). For the same molecule, the MIC [13] was > 64 µg/mL, the MIC [14] was > 128 µg/mL and the MIC [15] was > 64 µg/mL.
